Here are results for one molecule from PMC4305006 (Chemistry & biology, 2014).

Each structure is given as a SMILES string. Converted amounts (≈) assume the structure as drawn.

The experiment has as its system Mtb BioA over-expression strain (BioA-OE). The format is cell-based, Mycobacterium tuberculosis.

`C=C(CCC(=O)O)c1nc2ccccc2s1` [Compound 13, 4-(benzothiazol-2-yl)pentenoic acid]: the “MIC90 BioA-OE” value worked out at 4.7 µM (≈ 1.1 µg/mL).
